Experimental data from patent US9849190B2, “Peptide having cancer selective translocation function and use thereof” (SNU R&DB FOUNDATION, priority 2012, dated 2017).

Assays:
[1] = tested on: tumor cell line (MDA-MB-231, ATCC); assay: Tumor cell penetration of fluorescent-labelled peptides (FACS, confocal microscopy); type: cell-based; details: for fluorescence of the tumor cells measured by FACS: MDA-MB-231, 60 minutes after inoculation, various peptide concentrations, FIG. 1A; for ability to penetrate the tumor cell line, confocal laser scanning microscope: MDA-MB-231, various peptide concentrations, FIG. 1B
Procedure: In order to test the tumor cell-targeting and tumor cell-penetrating abilities of the VPTD peptide of SEQ ID NO: 1 and the HPTD peptide of […], prepared in Example 1, the termini of the prepared peptides were labeled with a fluorescent dye, and then each of the peptides was inoculated into a tumor cell line (MDA-MB-231, ATCC) at various concentrations.
60 minutes after the inoculation, the fluorescence of the cells was measured by FACS, and the results of the measurement are shown in FIGS. 1A and 1B.

VEGF = assay: Slot-blot analysis of binding to VEGF; details: FIG. 2
Source text: (§1) This is believed to be because the tumor-penetrating ability of the VPTD peptide of the present invention was maximized in the tumor tissue and the VPTD peptide did bind specifically to VEGF to inhibit vascular formation essential for the formation and progression of tumors. […] As a result, it could be seen that the VPTD peptide and the HPTD peptide did all bind to VEGF and heparin, which are overexpressed in tumor cells or tumor tissue.

[2] = Slot-blot analysis of binding to heparin; details: FIG. 2
Source text: as §1

tumor induced in mice = assay: Tumor inhibitory effect in tumor-induced mice; type: in vivo; details: injected, volume measured every 3-4 days for 30 days, versus control, FIG. 3
Procedure: In order to test the effects of the VPTD peptide of SEQ ID NO: 1 (VSRRRRRRGGRRRR) and the HPTD peptide of SEQ ID NO: (CSSRKKNPNCRRH), prepared in Example 1, and the tumor-targeting and tumor-penetrating peptide-drug conjugates prepared in Example 2, a tumor was induced in mice, and when the tumor grew to a predetermined size, each of the peptides prepared in Example 1 and the tumor-targeting and tumor-penetrating peptide-drug conjugates prepared in Example 2 was injected into the mice. After injection, the volume of the tumor was measured at intervals of 3-4 days for 30 days. On day 30, the mice were sacrificed, and the tumor was extracted and photographed.
as §1

CSSRKKNPNCRRH (HPTD) [HPTD peptide]
fluorescence of the tumor cells measured by FACS [1]: increased in a manner dependent on the concentration of the peptide
ability to penetrate the tumor cell line, confocal laser scanning microscope [1]: increased in a manner dependent on the concentration of the peptide
binding to VEGF (VEGF): did all bind
binding to heparin [2]: did all bind

VSRRRRRRGGRRRR (VPTD) [VPTD peptide]
fluorescence of the tumor cells measured by FACS [1]: increased in a manner dependent on the concentration of the peptide
ability to penetrate the tumor cell line, confocal laser scanning microscope [1]: increased in a manner dependent on the concentration of the peptide
progression of the tumor (tumor volume) (tumor induced in mice): significantly inhibited
binding to VEGF (VEGF): did all bind
binding to heparin [2]: did all bind
